The results in this text go back to patent US6720324B2, “Selective melanin concentrating hormone-1 (MCH1) receptor antagonists and uses thereof” (Synaptic Pharmaceutical Corporation, priority 2000, dated 2004).

Read-outs that look alike come from different tables or passages of the source. Where only a bound is given, the exact number is not on record here.

Common to all, as to assay: Radioligand binding assay, cloned receptor
One assay deals with T1, human GALR3 (Homo sapiens, UniProt O60755).
T1 construct: expressed in transfected cells
T1 sequence (O60755 1-368): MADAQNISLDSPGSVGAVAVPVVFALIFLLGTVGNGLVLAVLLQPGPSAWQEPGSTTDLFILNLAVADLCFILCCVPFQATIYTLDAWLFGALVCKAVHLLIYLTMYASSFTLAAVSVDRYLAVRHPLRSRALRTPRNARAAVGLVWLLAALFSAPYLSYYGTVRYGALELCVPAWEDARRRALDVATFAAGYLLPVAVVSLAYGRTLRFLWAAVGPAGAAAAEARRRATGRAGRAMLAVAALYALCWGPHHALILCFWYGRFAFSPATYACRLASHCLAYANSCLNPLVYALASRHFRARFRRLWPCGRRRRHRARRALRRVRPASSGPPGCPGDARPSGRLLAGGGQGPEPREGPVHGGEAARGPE
The conditions noted are these: read-out: hGALR3 Ki. Here is the method:
(§1) For binding assays, pellets of transfected cells are suspended in ice-cold buffer (20 mM Tris.HCl, 5 mM EDTA, pH 7.4) and homogenized by sonication for 7 sec. The cell lysates are centrifuged at 200×g for 5 min at 4° C. The supernatants are then centrifuged at 40,000×g for 20 min at 4° C. The resulting pellets are washed once in the homogenization buffer and suspended in binding buffer (see methods for radioligand binding). Protein concentrations are determined by the method of Bradford (1976) using bovine serum albumin as the standard. Binding assays are usually performed immediately, however it is possible to prepare membranes in batch and store frozen in liquid nitrogen for future use.
(§2) The methods to obtain the cDNA of the human NPY1, NPY5, GALR1, GALR2, and GALR3 and rat 5-HT2C receptors, express said receptors in heterologous systems, and carry out assays to determine binding affinity are described in the following publications and above: human NPY1 (Larhammar et al., 1992), human NPY5 (U.S. Pat. No. 5,602,024, the disclosure of which is hereby incorporated by reference in its entirety into this application), human Gal1 (Habert-Ortoli et al., 1994), human Gal2 (Smith et al., 1997), human Gal3 (Smith et al., 1998), and rat 5-HT2C (Julius et al., 1988).

For the next assay, the target named is T2, human NPY1 (Homo sapiens, UniProt P25929).
T2 construct: expressed in transfected cells
T2 sequence (P25929 1-384): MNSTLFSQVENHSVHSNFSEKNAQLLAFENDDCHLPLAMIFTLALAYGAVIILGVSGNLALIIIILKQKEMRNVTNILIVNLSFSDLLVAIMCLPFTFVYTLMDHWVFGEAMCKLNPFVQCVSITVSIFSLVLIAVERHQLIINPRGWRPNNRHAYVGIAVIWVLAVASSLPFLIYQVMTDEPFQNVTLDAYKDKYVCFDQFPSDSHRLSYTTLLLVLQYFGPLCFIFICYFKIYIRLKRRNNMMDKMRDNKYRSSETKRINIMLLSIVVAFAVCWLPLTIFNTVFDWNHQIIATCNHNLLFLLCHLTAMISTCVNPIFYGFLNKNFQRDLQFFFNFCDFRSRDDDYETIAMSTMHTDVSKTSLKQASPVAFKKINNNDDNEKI
The settings on record: read-out: hNPY1 Ki. Here is the method:
as §1, §2

Another assay addresses T3, rat 5-HT2C receptor (Rattus norvegicus, UniProt P08909).
T3 construct: expressed in transfected cells
T3 sequence (P08909 33-460): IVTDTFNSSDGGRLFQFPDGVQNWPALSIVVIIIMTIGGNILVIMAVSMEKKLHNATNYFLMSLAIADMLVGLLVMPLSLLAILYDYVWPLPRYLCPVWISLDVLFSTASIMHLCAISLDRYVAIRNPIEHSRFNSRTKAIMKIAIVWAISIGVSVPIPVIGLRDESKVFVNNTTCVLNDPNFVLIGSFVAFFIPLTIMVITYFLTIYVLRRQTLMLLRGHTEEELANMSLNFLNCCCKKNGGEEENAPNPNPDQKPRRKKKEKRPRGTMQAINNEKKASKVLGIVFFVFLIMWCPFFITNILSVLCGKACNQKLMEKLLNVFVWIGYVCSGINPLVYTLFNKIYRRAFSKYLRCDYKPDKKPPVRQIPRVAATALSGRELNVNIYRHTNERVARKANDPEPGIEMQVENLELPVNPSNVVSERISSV
The conditions noted are these: read-out: r5HT2C Ki. Here is the method:
as §1, §2

A further assay has as its target T4, human GALR2 (Homo sapiens, UniProt O43603).
T4 construct: expressed in transfected cells
T4 sequence (O43603 1-387): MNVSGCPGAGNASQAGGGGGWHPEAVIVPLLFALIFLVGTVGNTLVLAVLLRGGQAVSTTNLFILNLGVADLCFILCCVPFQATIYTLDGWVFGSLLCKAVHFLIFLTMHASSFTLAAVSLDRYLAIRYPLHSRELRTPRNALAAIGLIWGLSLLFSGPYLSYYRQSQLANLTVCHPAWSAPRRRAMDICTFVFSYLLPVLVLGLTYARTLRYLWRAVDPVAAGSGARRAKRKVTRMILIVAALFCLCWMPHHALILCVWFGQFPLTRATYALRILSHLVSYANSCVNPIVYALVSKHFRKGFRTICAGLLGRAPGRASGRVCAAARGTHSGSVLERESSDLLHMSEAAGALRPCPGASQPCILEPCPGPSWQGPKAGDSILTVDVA
The conditions noted are these: read-out: hGALR2 Ki. Here is the method:
as §1, §2

With “2-(3,4-DIFLUOROPHENYL)4,5-DIHYDROIMIDAZOLE-1-CARBOXYLIC ACID {3-[4-PHENYL-4-(4-BROMO-5-METHYLTHIOPNEN-2-YL)]PROPYL}-AMIDE [Example 19]”, the Ki on human GALR3 (Table 2) is over 50 µM; on human GALR3 (Table 3), over 50 µM; on human NPY1 (Table 2), over 50 µM; on human NPY1 (Table 3), over 50 µM; on rat 5-HT2C receptor (Table 2) it was 11.7 µM; on rat 5-HT2C receptor (Table 3), 11.7 µM. Also, the Ki at human GALR2 (Table 2) and on human GALR2 (Table 3) was over 50 µM in each case.

A word on the Ki: it is a measure of affinity in units of concentration, obtained from inhibition or displacement.
